According to ChEMBL document CHEMBL1921675, “Synthesis and cytotoxic evaluation of novel paraconic acid analogs” (Bioorg Med Chem Lett, 2011):

Assays:
KB [1] = experiment: Antiproliferative activity against human KB cells assessed as cellular growth inhibition at 10 uM after 72 hrs by MTS assay; type: functional; conditions: read-out: GI
MCF7 [2] = experiment: Antiproliferative activity against human MCF7 cells assessed as cellular growth inhibition at 10 uM after 72 hrs by MTS assay; type: functional; conditions: MCF7, 72 h, read-out: GI
HL-60 [3] = experiment: Antiproliferative activity against human HL60 cells assessed as cellular growth inhibition at 10 uM after 72 hrs by MTS assay; type: functional; conditions: HL-60, 72 h, read-out: GI
HCT-116 [4] = experiment: Antiproliferative activity against human HCT116 cells assessed as cellular growth inhibition at 10 uM after 72 hrs by MTS assay; type: functional; conditions: HCT-116, 72 h, read-out: GI
[5] = Antiproliferative activity against human HL60R cells assessed as cellular growth inhibition at 10 uM after 72 hrs by MTS assay; type: functional; conditions: read-out: GI
HL-60 [6] = experiment: Antiproliferative activity against human HL60 cells after 72 hrs by MTS assay; type: functional, cell-based; conditions: HL-60, 72 h
[7] = Antiproliferative activity against human MCF7/R cells assessed as cellular growth inhibition at 10 uM after 72 hrs by MTS assay; type: functional; conditions: MCF7R, read-out: GI
SK-OV-3 = experiment: Antiproliferative activity against human SKOV3 cells assessed as cellular growth inhibition at 10 uM after 72 hrs by MTS assay; type: functional; conditions: SK-OV-3, 72 h, read-out: GI
MCF7 [8] = experiment: Antiproliferative activity against human MCF7 cells after 72 hrs by MTS assay; type: functional, cell-based; conditions: MCF7, 72 h
PC-3 = experiment: Antiproliferative activity against human PC3 cells assessed as cellular growth inhibition at 10 uM after 72 hrs by MTS assay; type: functional; conditions: PC-3, 72 h, read-out: GI
HCT-116 [9] = experiment: Antiproliferative activity against human HCT116 cells after 72 hrs by MTS assay; type: functional, cell-based; conditions: HCT-116, 72 h
KB [10] = experiment: Antiproliferative activity against human KB cells after 72 hrs by MTS assay; type: functional, cell-based

IC50 (HL-60 [6])	IC50 (MCF7 [8])	IC50 (HCT-116 [9])	IC50 (KB [10])	Compound	inhibition of growth at 10 µM (KB [1])	inhibition of growth at 10 µM (MCF7 [2])	inhibition of growth at 10 µM (HL-60 [3])	inhibition of growth at 10 µM (HCT-116 [4])	inhibition of growth at 10 µM [5]	inhibition of growth at 10 µM [7]	inhibition of growth at 10 µM (SK-OV-3)	inhibition of growth at 10 µM (PC-3)
–	–	–	–	COC(=O)[C@@]1(Cc2ccc(OC)cc2)CC(=O)O[C@]1(C)c1ccccc1	98%	59%	68%	56%	–	–	–	–
–	–	–	–	COC(=O)C1(Cc2ccccc2)CC(=O)OC1c1ccccc1 (mixture of isomers)	18%	0%	22%	0%	–	–	–	–
–	–	–	–	COC(=O)C1(Cc2ccc(OC)cc2)CC(=O)OC1c1ccccc1 (mixture of isomers)	19%	0%	15%	4%	–	–	–	–
–	–	–	–	COC(=O)c1ccc(CC2(C(=O)OC)CC(=O)OC2c2ccccc2)cc1 (mixture of isomers)	12%	0%	19%	0%	–	–	–	–
–	–	–	–	COC(=O)C1(Cc2cccc(C(F)(F)F)c2)CC(=O)OC1c1ccccc1 (mixture of isomers)	39%	11%	34%	14%	–	–	–	–
–	–	–	–	COC(=O)C1(Cc2ccc3c(c2)OCO3)CC(=O)OC1c1ccccc1 (mixture of isomers)	0%	11%	18%	18%	–	–	–	–
–	–	–	–	COC(=O)C1(Cc2ccc(OC)cc2)CC(=O)OC1c1ccccc1C(F)(F)F (mixture of isomers)	31%	0%	23%	0%	–	–	–	–
–	–	–	–	COC(=O)C1(Cc2ccc(OC)cc2)CC(=O)OC1c1ccc(C(F)(F)F)cc1 (mixture of isomers)	0%	4%	2%	0%	–	–	–	–
–	–	–	–	COC(=O)C1(Cc2ccc(OC)cc2)CC(=O)OC1c1ccc(F)cc1 (mixture of isomers)	33%	4%	37%	0%	–	–	–	–
–	–	–	–	COC(=O)C1(Cc2ccc(OC)cc2)CC(=O)OC1c1ccco1 (mixture of isomers)	32%	0%	29%	0%	–	–	–	–
–	–	–	–	CCCCCCC1OC(=O)CC1(Cc1ccc(OC)cc1)C(=O)OC (mixture of isomers)	13%	28%	8%	12%	–	–	–	–
–	–	–	–	COC(=O)C1(Cc2ccccc2)CC(=O)OC1(C)c1ccccc1 (mixture of isomers)	6%	13%	22%	9%	–	–	–	–
0.87 µM	2.76 µM	1.35 µM	0.59 µM	COC(=O)C1(Cc2ccc(OC)cc2)CC(=O)OC1(C)c1ccccc1 (mixture of isomers)	95%	56%	82%	61%	92%	82%	76%	68%
–	–	–	–	COC(=O)C1(Cc2cccc(C(F)(F)F)c2)CC(=O)OC1(C)c1ccccc1 (mixture of isomers)	21%	20%	21%	22%	–	–	–	–
–	–	–	–	COC(=O)C1(Cc2ccc(OC)cc2)CC(=O)OC1(C)c1cccc(C(F)(F)F)c1 (mixture of isomers)	38%	46%	52%	30%	–	–	–	–
–	–	–	–	CCC1(c2ccccc2)OC(=O)CC1(Cc1ccc(OC)cc1)C(=O)OC (mixture of isomers)	11%	21%	30%	28%	–	–	–	–
–	–	–	–	COC(=O)C1(Cc2ccc(OC)cc2)CC(=O)OC1(c1ccccc1)C(F)(F)F (mixture of isomers)	56%	8%	64%	20%	–	–	–	–
–	–	–	–	COC(=O)C1(Cc2ccccc2)CC(=O)OC12CCCCC2 (racemic)	7%	1%	4%	0%	–	–	–	–
